From patent publication US20060039974A1, “Sustained release preparation” (TAKEDA PHARMACEUTICAL COMPANY LIMITED, priority 2002, published 2006)

Assay: Dissolution test, Paddle Method, CTAB-containing The Japanese Pharmacopoeia 2nd fluid
Assay type: physicochemical
Conditions: after 10 min; control group; 0.1% CTAB-containing JP 2nd fluid 500 mL, 100 rpm
Experimental: To be specific, the tablets obtained in Examples 1-3 were subjected to a dissolution test (Paddle Method, 0.1% cetyltrimethylammoniumbromide (CTAB)-containing The Japanese Pharmacopoeia Degradation Test2nd fluid (hereinafter to be abbreviated as CTAB-containing The Japanese Pharmacopoeia Degradation Test 2nd fluid) 500 mL, number of rotation 100 rpm). In addition, as a control group, the powder of compound A was subjected to a similar dissolution test and found to show a dissolution rate of 99% after 10 min.
To be specific, a dissolution test of the tablet obtained in Example 13 was performed in the same manner as in Experimental Example 1. In addition, as a control group, the tablet of Reference Example 1 was subjected to a similar dissolution test and found to show a dissolution rate of 100% after 10 min.
To be specific, each tablet obtained in Examples 7 and 21 was subjected to a dissolution test (Paddle Method, The Japanese Pharmacopoeia Degradation Test 1st fluid (hereinafter to be abbreviated as The Japanese Pharmacopoeia 1st fluid) 500 mL, number of rotation 100 rpm). In addition, in the same manner as above except that the eluent was a CTAB-containing The Japanese Pharmacopoeia 2nd fluid, a dissolution test of the tablets obtained in Examples 7 and 21 was performed. The results are shown in Table 4 and Table 5, respectively.

In the case of `CC(C)Cn1c(CN)c(-c2ccccc2)c2cc(C(N)=O)ccc2c1=O` [Compound A, 3-(aminomethyl)-2-isobutyl-1-oxo-4-phenyl-1,2-dihydroisoquinoline-6-carboxamide], the dissolution rate is reported as 99%.
